Read-outs that look alike come from different tables or passages of the source.
Columns and labels:
[1] = biological target: KRas G12C mutant (Homo sapiens (Human), UniProt P01116, G12C); test: Ras GTP Binding Domain Inhibition Assay, KRas G12C mutant
How it was run: (§1)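 Readout is fluorescence of Cy3-GTP or Cy5-GTP (100 nM final, 45 min, room temperature) still bound after washes to His-tagged KRas immobilised on nickel plates. Beforehand, compounds (20 μM final; serial dilutions for IC50) incubated 3 h with protein in 1% DMSO, with or without His-tagged Sos GEF added for the last hour.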

[2] = system: JNK; test: JNK Activation Assay in Panc-1 (western blot); format: cell-based, Human; parameters: key: Y = yes; N = No; conditions: at 10 μM
How it was run: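 Cells were serum-starved overnight in 0.5% FBS, then given compound (10 μM single dose or serial dilutions, 0.3% DMSO) for 3 h at 37 °C. TGF-b1 at 10 ng/ml followed, 1 h for Panc-1 and 20 min for C2C12. Phospho-JNK (Thr183/Tyr185) was read by western blot of lysates.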

[3] = biological target: KRas G12D mutant (Homo sapiens (Human), UniProt P01116, G12D); test: Ras GTP Binding Domain Inhibition Assay, KRas G12D mutant; conditions: for inhibition at 20 µM: Table 7; for KRas G12D mutant + SOS: % inh. / KRas G12D mutant: % inh.: 20 uM, Table 8
Chain of KRas G12D mutant (P01116 other isoform, or with tags, fused parts or gaps G12D): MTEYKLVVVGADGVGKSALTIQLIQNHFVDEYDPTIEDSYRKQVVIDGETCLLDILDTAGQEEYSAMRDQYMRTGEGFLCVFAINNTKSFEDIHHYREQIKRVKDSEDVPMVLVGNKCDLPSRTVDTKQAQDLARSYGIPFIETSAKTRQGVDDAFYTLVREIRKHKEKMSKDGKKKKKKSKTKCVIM
How it was run: as §1

[4] = biological target: Rho-A (Homo sapiens (Human), UniProt P61586); test: Ras GTP Binding Domain Inhibition Assay, Rho-A
Chain of Rho-A (P61586 whole entry, species assumed, the tested form may be a part): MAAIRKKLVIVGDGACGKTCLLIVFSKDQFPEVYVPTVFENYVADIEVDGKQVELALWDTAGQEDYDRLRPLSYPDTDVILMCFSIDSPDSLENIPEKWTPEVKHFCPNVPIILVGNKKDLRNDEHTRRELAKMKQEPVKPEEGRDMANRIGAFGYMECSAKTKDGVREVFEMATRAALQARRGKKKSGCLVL
How it was run: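 Steps: coat His-tagged protein (10-30 μg/mL) on nickel wells overnight at 4° C; add test compound, 20 μM final or serial dilution, 1% DMSO, 3 h RT; optional Sos final hour; add 100 nM Cy3-GTP or Cy5-GTP, 45 min; wash and read fluorescence.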

[5] = biological target: KRas wild type (Homo sapiens (Human), UniProt P01116); test: Ras GTP Binding Domain Inhibition Assay, KRas wild type
Chain of KRas wild type (P01116 other isoform, or with tags, fused parts or gaps): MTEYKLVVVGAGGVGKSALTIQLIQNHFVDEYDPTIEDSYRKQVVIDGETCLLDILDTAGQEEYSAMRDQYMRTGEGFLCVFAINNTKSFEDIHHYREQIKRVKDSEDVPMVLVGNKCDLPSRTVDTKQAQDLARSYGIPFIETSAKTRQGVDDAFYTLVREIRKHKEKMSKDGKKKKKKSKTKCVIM
How it was run: as §1

[6] = + SOS, read-out: KRas G12C mutant + SOS: % inh.
[7] = without SOS, read-out: KRas G12C mutant: % inh.
[8] = + SOS, read-out: KRas G12D mutant + SOS: % inh.
[9] = without SOS, read-out: KRas G12D mutant: % inh.
[10] = + SOS, read-out: Rho-A + SOS: % inh.
[11] = without SOS, read-out: Rho-A: % inh.
[12] = + SOS, read-out: KRas wild type + SOS: % inh.
[13] = without SOS, read-out: KRas wild type: % inh.

Chain of KRas G12C mutant (P01116 other isoform, or with tags, fused parts or gaps G12C): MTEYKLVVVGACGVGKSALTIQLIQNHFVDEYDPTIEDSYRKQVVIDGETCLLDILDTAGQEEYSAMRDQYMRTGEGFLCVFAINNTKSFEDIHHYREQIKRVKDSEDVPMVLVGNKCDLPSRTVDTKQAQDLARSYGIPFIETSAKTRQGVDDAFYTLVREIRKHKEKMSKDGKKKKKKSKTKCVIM

| inhibition at 20 µM [1, 6] [%] | inhibition at 20 µM [1, 7] [%] | inhibition at 20 µM [3, 8] [%] | KRas G12D mutant + SOS: % inh. ([3]; + SOS) | inhibition at 20 µM [3, 9] [%] | KRas G12D mutant: % inh. ([3]; without SOS) | inhibition at 20 µM [4, 11] [%] | inhibition at 20 µM [5, 12] [%] | inhibition at 20 µM [5, 13] [%] | Structure (SMILES) | Activation of JNK in PANC-1 [2] | inhibition at 20 µM [4, 10] [%] |
| --- | --- | --- | --- | --- | --- | --- | --- | --- | --- | --- | --- |
| 76 to 100 | 76 to 100 | 76 to 100 | D (D = 76-100% inhibition) | 46 to 75 | C (C = 46-75% inhibition) | 76 to 100 | 76 to 100 | 76 to 100 | COCCn1ccnc1-c1nc(N[C@H]2C[C@@H](OC)C2)c2c(-c3ccccc3)c(-c3ccn(C)n3)sc2n1 [Compound 13, N-((1s,3s)-3-methoxycyclobutyl)-2-(1-(2-methoxyethyl)-1H-imidazol-2-yl)-6-(1-methyl-1H-pyrazol-3-yl)-5-phenylthieno[2,3-d]pyrimidin-4-amine] | Y | 76 to 100 |
| 46 to 75 | 46 to 75 | 46 to 75 | C (C = 46-75% inhibition) | 26 to 45 | B (B = 26-45% inhibition) | 46 to 75 | 46 to 75 | 76 to 100 | CO[C@H]1C[C@H](CNc2nc(-c3nccn3C)nc3sc(-c4ccn(C(C)C)n4)c(C)c23)C1 [Compound 16, 6-(1-Isopropyl-1H-pyrazol-3-yl)-N-(((1r,3r)-3-methoxycyclobutyl)methyl)-5-methyl-2-(1-methyl-1H-imidazol-2-yl)thieno[2,3-d]pyrimidin-4-amine] | Y |  |
| 76 to 100 | 46 to 75 | 46 to 75 | C (C = 46-75% inhibition) | 46 to 75 | C (C = 46-75% inhibition) | 46 to 75 | 46 to 75 | 26 to 45 | COc1cccc(Nc2nc(-c3nccn3C)nc3sc(-c4ccn(C(C)C)n4)c(C)c23)c1 [Compound 17, 6-(1-Isopropyl-1H-pyrazol-3-yl)-N-(3-methoxyphenyl)-5-methyl-2-(1-methyl-1H-imidazol-2-yl)thieno[2,3-d]pyrimidin-4-amine] | Y |  |
| 46 to 75 | 46 to 75 | 46 to 75 | C (C = 46-75% inhibition) | 76 to 100 | D (D = 76-100% inhibition) | 76 to 100 | 46 to 75 | 46 to 75 | COc1cccc(Nc2nc(-c3nccn3C)nc3sc(-c4ccn(C(C)C)n4)c(C)c23)n1 [Compound 18, 6-(1-Isopropyl-1H-pyrazol-3-yl)-N-(6-methoxypyridin-2-yl)-5-methyl-2-(1-methyl-1H-imidazol-2-yl)thieno[2,3-d]pyrimidin-4-amine] | Y |  |
| 76 to 100 | 46 to 75 | 46 to 75 | C (C = 46-75% inhibition) | 26 to 45 | B (B = 26-45% inhibition) | 76 to 100 | 76 to 100 | 76 to 100 | COc1cc(Nc2nc(-c3nccn3C)nc3sc(-c4ccn(C(C)C)n4)c(C)c23)ncn1 [Compound 19, 6-(1-Isopropyl-1H-pyrazol-3-yl)-N-(6-methoxypyrimidin-4-yl)-5-methyl-2-(1-methyl-1H-imidazol-2-yl)thieno[2,3-d]pyrimidin-4-amine] | Y |  |
| 76 to 100 | 46 to 75 | 76 to 100 | D (D = 76-100% inhibition) | 76 to 100 | D (D = 76-100% inhibition) | 76 to 100 | 76 to 100 | 76 to 100 | COCCOCCNc1nc(-c2nccn2C)nc2sc(-c3ccn(C(C)C)n3)c(C)c12 [Compound 21, 6-(1-Isopropyl-1H-pyrazol-3-yl)-N-(2-(2-methoxyethoxy)ethyl)-5-methyl-2-(1-methyl-1H-imidazol-2-yl)thieno[2,3-d]pyrimidin-4-amine] | Y |  |
| 76 to 100 | 76 to 100 | 76 to 100 | D (D = 76-100% inhibition) | 76 to 100 | D (D = 76-100% inhibition) | 76 to 100 | 76 to 100 | 76 to 100 | Cc1c(-c2ccn(C(C)C)n2)sc2nc(-c3nccn3C)nc(NCCN3CCOCC3)c12 [Compound 22, 6-(1-Isopropyl-1H-pyrazol-3-yl)-5-methyl-2-(1-methyl-1H-imidazol-2-yl)-N-(2-morpholinoethyl)thieno[2,3-d]pyrimidin-4-amine] | Y |  |
| 76 to 100 | 46 to 75 | 76 to 100 | D (D = 76-100% inhibition) | 76 to 100 | D (D = 76-100% inhibition) | 46 to 75 | 76 to 100 | 76 to 100 | Cc1c(-c2ccn(C(C)C)n2)sc2nc(-c3nccn3C)nc(NCCN3CCS(=O)(=O)CC3)c12 [Compound 23, 4-(2-((6-(1-Isopropyl-1H-pyrazol-3-yl)-5-methyl-2-(1-methyl-1H-imidazol-2-yl)thieno[2,3-d]pyrimidin-4-yl)amino)ethyl)thiomorpholine 1,1-dioxide] | N |  |
| 76 to 100 | 76 to 100 | 76 to 100 | D (D = 76-100% inhibition) | 46 to 75 | C (C = 46-75% inhibition) | 46 to 75 | 76 to 100 | 76 to 100 | CO[C@H]1CNC[C@@H](Nc2nc(-c3nccn3C)nc3sc(-c4ccn(C(C)C)n4)cc23)C1 [Compound 28, 6-(1-Isopropyl-1H-pyrazol-3-yl)-N-((3S,5R)-5-methoxypiperidin-3-yl)-2-(1-methyl-1H-imidazol-2-yl)thieno[2,3-d]pyrimidin-4-amine] | Y |  |
| 76 to 100 | 46 to 75 | 46 to 75 | C (C = 46-75% inhibition) | 46 to 75 | C (C = 46-75% inhibition) | 76 to 100 | 76 to 100 | 76 to 100 | COCCn1c(-c2nccn2C)nc2sc(-c3ccn(C(C)C)n3)c(C)c2c1=O [Compound 29, 6-(1-Isopropyl-1H-pyrazol-3-yl)-3-(2-methoxyethyl)-5-methyl-2-(1-methyl-1H-imidazol-2-yl)thieno[2,3-d]pyrimidin-4(3H)-one] | Y |  |

| Structure (SMILES) | inhibition at 20 µM [1, 6] [%] | inhibition at 20 µM [1, 7] [%] | inhibition at 20 µM [3, 8] [%] | KRas G12D mutant + SOS: % inh. ([3]; + SOS) | inhibition at 20 µM [3, 9] [%] | KRas G12D mutant: % inh. ([3]; without SOS) | inhibition at 20 µM [4, 11] [%] | inhibition at 20 µM [5, 12] [%] | inhibition at 20 µM [5, 13] [%] | Activation of JNK in PANC-1 [2] | inhibition at 20 µM [4, 10] [%] |
| --- | --- | --- | --- | --- | --- | --- | --- | --- | --- | --- | --- |
| COCCNc1nc(-c2nccn2C)nc2sc(-c3cccc(OC)c3Cl)c(-c3ccccc3)c12 [Compound 9, 6-(2-Chloro-3-methoxyphenyl)-N-(2-methoxyethyl)-2-(1-methyl-1H-imidazol-2-yl)-5-phenylthieno[2,3-d]pyrimidin-4-amine] | 76 to 100 | 26 to 45 | 46 to 75 | C (C = 46-75% inhibition) | 46 to 75 | C (C = 46-75% inhibition) | 26 to 45 | 76 to 100 | 46 to 75 | Y | 26 to 45 |

Source: patent publication US20240124483A1, “Methods for the Treatment of Fibrotic Disease” (SHY Therapeutics, LLC, priority 2021, published 2024)
